# PubChem BioAssay (NCI)
#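 Assay format: 96-well plates, 48-hour exposure. The concentration for full growth arrest is given as TGI.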
# How the values were obtained:
# Assay in all cases: DTP human tumour cell line panel, 48 h
# SR leukemia = system: SR leukemia
# ACHN renal = system: ACHN renal
# IGROV1 ovarian = system: IGROV1 ovarian
# HL-60(TB) leukemia = system: HL-60(TB) leukemia
# HCT-116 colon = system: HCT-116 colon
# OVCAR-5 ovarian = system: OVCAR-5 ovarian
# UACC-257 melanoma = system: UACC-257 melanoma
# LOX IMVI melanoma = system: LOX IMVI melanoma
# UO-31 renal = system: UO-31 renal
# DU-145 prostate = system: DU-145 prostate
# K-562 leukemia = system: K-562 leukemia
# MDA-MB-231 breast = system: MDA-MB-231 breast
# HCT-15 colon = system: HCT-15 colon
# NCI-H23 lung = system: NCI-H23 lung
# CAKI-1 renal = system: CAKI-1 renal
# MALME-3M melanoma = system: MALME-3M melanoma
# SK-MEL-28 melanoma = system: SK-MEL-28 melanoma
# RXF 393 renal = system: RXF 393 renal
# MOLT-4 leukemia = system: MOLT-4 leukemia
# OVCAR-8 ovarian = system: OVCAR-8 ovarian
# PC-3 prostate = system: PC-3 prostate
# MCF7 breast = system: MCF7 breast
# NCI/ADR-RES ovarian = system: NCI/ADR-RES ovarian
# NCI-H226 lung = system: NCI-H226 lung
# HCC-2998 colon = system: HCC-2998 colon
# SK-MEL-5 melanoma = system: SK-MEL-5 melanoma
# SK-OV-3 ovarian = system: SK-OV-3 ovarian
# SF-539 CNS = system: SF-539 CNS
# HOP-62 NSCLC = system: HOP-62 NSCLC
# COLO 205 colon = system: COLO 205 colon
# MDA-N = system: MDA-N
# NCI-H460 lung = system: NCI-H460 lung
# EKVX NSCLC = system: EKVX NSCLC
# SNB-19 CNS = system: SNB-19 CNS
# CCRF-CEM leukemia = system: CCRF-CEM leukemia
# SK-MEL-2 melanoma = system: SK-MEL-2 melanoma
# NCI-H522 lung = system: NCI-H522 lung
# SW-620 colon = system: SW-620 colon
# BT-549 breast = system: BT-549 breast
# SF-268 CNS = system: SF-268 CNS
# TK-10 renal = system: TK-10 renal
# SF-295 CNS = system: SF-295 CNS
# M14 melanoma = system: M14 melanoma
# A549 NSCLC = system: A549 NSCLC
# OVCAR-4 ovarian = system: OVCAR-4 ovarian
# HOP-92 NSCLC = system: HOP-92 NSCLC
# HS 578T breast = system: HS 578T breast
# RPMI-8226 leukemia = system: RPMI-8226 leukemia
# OVCAR-3 ovarian = system: OVCAR-3 ovarian
# MDA-MB-435 = system: MDA-MB-435
# 786-0 renal = system: 786-0 renal
# SN12C renal = system: SN12C renal
# SNB-75 CNS = system: SNB-75 CNS
# UACC-62 melanoma = system: UACC-62 melanoma
# KM12 colon = system: KM12 colon
# A498 renal = system: A498 renal
# HT29 colon = system: HT29 colon
# U251 CNS = system: U251 CNS
smiles,measurement,setting,value
O=C(O)CNC(=O)C(CSC(=O)OCC1c2ccccc2-c2ccccc21)NC(=O)CCC(NC(=O)OCC1c2ccccc2-c2ccccc21)C(=O)O (configuration not stated),TGI,SR leukemia,15.4 µM
same,TGI,ACHN renal,32.8 µM
same,TGI,IGROV1 ovarian,26.8 µM
same,TGI,HL-60(TB) leukemia,> 100 µM
same,TGI,HCT-116 colon,32.6 µM
same,TGI,OVCAR-5 ovarian,> 100 µM
same,TGI,UACC-257 melanoma,> 100 µM
same,TGI,LOX IMVI melanoma,577 nM
same,TGI,UO-31 renal,33 µM
same,TGI,DU-145 prostate,28.6 µM
same,TGI,K-562 leukemia,39.2 µM
same,TGI,MDA-MB-231 breast,31.9 µM
same,TGI,HCT-15 colon,64.8 µM
same,TGI,NCI-H23 lung,> 100 µM
same,TGI,CAKI-1 renal,15.7 µM
same,TGI,MALME-3M melanoma,59.4 µM
same,TGI,SK-MEL-28 melanoma,> 100 µM
same,TGI,RXF 393 renal,34.7 µM
same,TGI,MOLT-4 leukemia,45.4 µM
same,TGI,OVCAR-8 ovarian,32.4 µM
same,TGI,PC-3 prostate,28.9 µM
same,TGI,MCF7 breast,> 100 µM
same,TGI,NCI/ADR-RES ovarian,33.7 µM
same,TGI,NCI-H226 lung,> 100 µM
same,TGI,HCC-2998 colon,> 100 µM
same,TGI,SK-MEL-5 melanoma,> 100 µM
same,TGI,SK-OV-3 ovarian,> 100 µM
same,TGI,SF-539 CNS,30.6 µM
same,TGI,HOP-62 NSCLC,28.9 µM
same,TGI,COLO 205 colon,31.1 µM
same,TGI,MDA-N,82.3 µM
same,TGI,NCI-H460 lung,34.2 µM
same,TGI,EKVX NSCLC,32.2 µM
same,TGI,SNB-19 CNS,> 100 µM
same,TGI,CCRF-CEM leukemia,41.2 µM
same,TGI,SK-MEL-2 melanoma,> 100 µM
same,TGI,NCI-H522 lung,3.52 µM
same,TGI,SW-620 colon,35.1 µM
same,TGI,BT-549 breast,> 100 µM
same,TGI,SF-268 CNS,33.1 µM
same,TGI,TK-10 renal,56 µM
same,TGI,SF-295 CNS,30.5 µM
same,TGI,M14 melanoma,> 100 µM
same,TGI,A549 NSCLC,28 µM
same,TGI,OVCAR-4 ovarian,29.5 µM
same,TGI,HOP-92 NSCLC,36.3 µM
same,TGI,HS 578T breast,> 100 µM
same,TGI,RPMI-8226 leukemia,46.4 µM
same,TGI,OVCAR-3 ovarian,> 100 µM
same,TGI,MDA-MB-435,34.1 µM
same,TGI,786-0 renal,9.13 µM
same,TGI,SN12C renal,30.7 µM
CC(C)C(=O)OCC1CCCN2CCCCC12 (configuration not stated),TGI,ACHN renal,> 100 µM
same,TGI,SNB-75 CNS,> 100 µM
same,TGI,HL-60(TB) leukemia,> 100 µM
same,TGI,HCT-116 colon,> 100 µM
same,TGI,OVCAR-5 ovarian,> 100 µM
same,TGI,UACC-257 melanoma,> 100 µM
same,TGI,LOX IMVI melanoma,> 100000 nM
same,TGI,UO-31 renal,> 100 µM
same,TGI,UACC-62 melanoma,> 100 µM
same,TGI,DU-145 prostate,> 100 µM
same,TGI,K-562 leukemia,> 100 µM
same,TGI,MDA-MB-231 breast,> 100 µM
same,TGI,HCT-15 colon,> 100 µM
same,TGI,NCI-H23 lung,> 100 µM
same,TGI,CAKI-1 renal,> 100 µM
same,TGI,MALME-3M melanoma,> 100 µM
same,TGI,SK-MEL-28 melanoma,> 100 µM
same,TGI,RXF 393 renal,> 100 µM
same,TGI,KM12 colon,> 100 µM
same,TGI,MOLT-4 leukemia,> 100 µM
same,TGI,OVCAR-8 ovarian,> 100 µM
same,TGI,PC-3 prostate,> 100 µM
same,TGI,MCF7 breast,> 100 µM
same,TGI,NCI/ADR-RES ovarian,> 100 µM
same,TGI,NCI-H226 lung,> 100 µM
same,TGI,HCC-2998 colon,> 100 µM
same,TGI,SK-MEL-5 melanoma,> 100 µM
same,TGI,A498 renal,> 100 µM
same,TGI,SK-OV-3 ovarian,> 100 µM
same,TGI,SF-539 CNS,> 100 µM
same,TGI,HOP-62 NSCLC,> 100 µM
same,TGI,COLO 205 colon,> 100 µM
same,TGI,MDA-N,> 100 µM
same,TGI,NCI-H460 lung,> 100 µM
same,TGI,EKVX NSCLC,> 100 µM
same,TGI,SNB-19 CNS,> 100 µM
same,TGI,CCRF-CEM leukemia,> 100 µM
same,TGI,SK-MEL-2 melanoma,> 100 µM
same,TGI,HT29 colon,97.6 µM
same,TGI,SW-620 colon,> 100 µM
same,TGI,BT-549 breast,> 100 µM
same,TGI,SF-268 CNS,> 100 µM
same,TGI,TK-10 renal,> 100 µM
same,TGI,SF-295 CNS,> 100 µM
same,TGI,M14 melanoma,> 100 µM
same,TGI,A549 NSCLC,> 100 µM
same,TGI,OVCAR-4 ovarian,> 100 µM
same,TGI,HOP-92 NSCLC,> 100 µM
same,TGI,HS 578T breast,> 100 µM
same,TGI,RPMI-8226 leukemia,> 100 µM
same,TGI,OVCAR-3 ovarian,> 100 µM
same,TGI,MDA-MB-435,> 100 µM
same,TGI,U251 CNS,> 100 µM
same,TGI,786-0 renal,> 100 µM
same,TGI,SN12C renal,> 100 µM
